Reference: BigSolDB 2.1

Compound `Brc1cc(Br)cc(Br)c1` has a solubility (mole fraction) (in 1,4-dioxane, 288.15 K) of 0.0656, a solubility (mole fraction) (in 1,4-dioxane, 293.15 K) of 0.0742 and a solubility (mole fraction) (in 1,4-dioxane, 298.15 K) of 0.0851. It also gave a solubility (mole fraction) (in 1,4-dioxane, 303.15 K) of 0.0972, a solubility (mole fraction) (in 1,4-dioxane, 308.15 K) of 0.111 and a solubility (mole fraction) (in 1,4-dioxane, 313.15 K) of 0.123. The solubility (mole fraction) (in 1,4-dioxane, 318.15 K) was 0.141, the solubility (mole fraction) (in 1,4-dioxane, 323.15 K) was 0.157 and the solubility (mole fraction) (in 1,4-dioxane, 328.15 K) was 0.178. The solubility (mole fraction) (in DMAc, 288.15 K) was 0.0159, the solubility (mole fraction) (in DMAc, 293.15 K) was 0.0195 and the solubility (mole fraction) (in DMAc, 298.15 K) was 0.024. For the same compound, the solubility (mole fraction) (in DMAc, 303.15 K) was 0.0292, the solubility (mole fraction) (in DMAc, 308.15 K) was 0.0346 and the solubility (mole fraction) (in DMAc, 313.15 K) was 0.041. The solubility (mole fraction) (in DMAc, 318.15 K) was 0.0491, the solubility (mole fraction) (in DMAc, 323.15 K) was 0.0582 and the solubility (mole fraction) (in DMAc, 328.15 K) was 0.0683. The solubility (mole fraction) (in DMF, 288.15 K) was 0.00998, the solubility (mole fraction) (in DMF, 293.15 K) was 0.0127 and the solubility (mole fraction) (in DMF, 298.15 K) was 0.0161. The solubility (mole fraction) (in DMF, 303.15 K) was 0.0202, the solubility (mole fraction) (in DMF, 308.15 K) was 0.0244 and the solubility (mole fraction) (in DMF, 313.15 K) was 0.0295. It also gave a solubility (mole fraction) (in DMF, 318.15 K) of 0.0355, a solubility (mole fraction) (in DMF, 323.15 K) of 0.044 and a solubility (mole fraction) (in DMF, 328.15 K) of 0.0521.
